# Assay results as given in patent US20020082261A1, “PROPHYLACTIC OR THERAPEUTIC AGENTS FOR DISEASES HAIVNG VASCULAR DYSFUNCTION ASSOCIATED WITH INSULIN RESISTANCE” (priority 1998, published 2002).
# Counter-ions that a name gives are not always drawn.
# Tests used:
# rats = test: Acute toxicity via oral route in rats; assay type: in vivo
# [1] = tested on: superoxide anion (O2−) production level in thoracic aorta tissue sections; test: Superoxide anion (O2−) production level in thoracic aorta tissue sections, lucigenin-enhanced chemiluminescence, after 8 weeks oral dosing; assay type: in vivo, Male Sprague-Dawley rats; conditions: endothelium-separated sections EC (−), comparison among the 4 groups (CTR, CTR+BH4, FR, FR+BH4)
# Description: Male Sprague-Dawley rats (150 g, supplied from Charles River) were used to prepare a model group with insulin resistance induced by fructose feed loading (hereinafter referred to as “FR group”) according to the procedure described by Hwang et al. (Hwang, I-H. et al., Hypertension 10:512, 1987). A control group grown with a starch feed (hereinafter referred to as “CTR group”) was also prepared (FR group: n=16; CTR group: n=16). FR group received a feed containing 67% (hereinafter meaning % by weight) carbohydrate (containing 98% fructose available from Oriental Yeast Co., Ltd.), 13% fat and 20% protein, while CTR group received a feed containing 58% carbohydrate, 12% fat and […]. […] After 8 weeks, the thoracic aorta was collected. For each group, endothelium-separated sections (EC (−)) and non-separated sections (EC (+)) were prepared and examined for superoxide anion (O2^−) production level, endothelial NOS (eNOS) activity and endothelium-dependent vasorelaxation.
# Group-to-group statistic analyses were made by one-way ANOVA, with the significance level being p<0.05. Multiple comparison was made by Bonferronl/Dunn, with the significance level being p<0.05.
# Measurement of O2^−production level was made by the lucigenin-enhanced chemiluminescence method (Ohara et al., J. Clin. Invest. 91: 2546, 1993).
# [2] = as reported in Japanese Patent Public Disclosure No. 25323/84; cited from earlier work
smiles,measurement,setting,value
"C[C@H](O)[C@H](O)[C@H]1CNc2nc(N)[nH]c(=O)c2N1 [BH4 dihydrochloride, (6R)-L-erythro-5,6,7,8-tetrahydrobiopterin]",acute toxicity,rats,≥ 2 g/kg (body weight)
"C[C@H](O)[C@H](O)[C@H]1CNc2nc(N)[nH]c(=O)c2N1 [BH4, (6R)-L-erythro-5,6,7,8-tetrahydrobiopterin]",O2− production level in EC (−),[1],No significant difference
"C[C@H](O)[C@H](O)C1CNc2nc(N)[nH]c(=O)c2N1 (stereo partly drawn) [(6R,S)-5,6,7,8-tetrahydrobiopterin]",toxicity,[2],only slightly toxic
